Source: patent publication US6716628B2, “Chondrogenesis promoters and indolin-2-one derivatives” (Chugai Seiyaku Kabushiki Kaisha, priority 1999, dated 2004)

Assays:
rat knee joints = test: Chondrogenesis promoting effect with administration into rat knee joints; assay type: in vivo; details: 1 mmol/L, 50 μL per day into right knee joint for 3 weeks
Description: A 27G injection needle and 1 mL syringe (both by Terumo Corp.) were used to administer 1 mmol/L of “compound A” (dissolved in 50% DMSO dimethylsulfoxide)-physiological saline solution; DMSO by Junsei Chemical Corp., physiological saline by Otsuka Pharmaceutical Corp.) into the right knee joint of 10-week-old male SD rats (Nihon Charles River Corp.) at a dosage of 50 μL per day for 3 weeks.
Another test group was administered 50% DMSO-physiological saline (by Junsei Chemical Corp. and Otsuka Pharmaceutical Corp., respectively) in the same manner as a vehicle control.
After 3 weeks of daily administration, the rats were autopsied, and the distance between lateral and medial attachment sites of collateral ligament of the right femur was measured with calipers (Mitsutoyo Corp.) to determine the width of the femoral knee joint. Then, in the same manner as Example 1, tissue samples were prepared and stained with 0.3% Safranin O (Merck Co., Ltd.) and observed under a microscope (magnification: 10× object lens, product of Nihon Kogaku Corp.).

[1] = tested on: common mouse chondrocyte and adipocyte precursor cell line (CL-1); test: Uptake of 35S-labeled sulfuric acid into CL-1; assay type: cell-based; details: 10 μmol/L (A and F also 1 or 5 μmol/L), 48 h culture, uptake in final 24 h
Description: The above-mentioned cell line CL-1 was cultured in a 96-well cell culturing plate (Wallac Corp.) for a liquid scintillation counter (Wallac Corp.) to a cell density of 1000 per well. The medium used was α-MEM (GIBCO Corp.) containing 100 U/mL of penicillin (Meiji Seika Co., Ltd.), 100 μg/mL of streptomycin (Banyu Pharmaceutical Corp.) and 10% fetal bovine serum (INTERGEN Corp.). When the CL-1 cells reached confluency, the medium was exchanged with one containing 10 μmol/L of compounds A, B, C, D, E, F and G, and after 24 hours, ^35S-labeled sulfuric acid was added at 0.5 μCi per well and culturing was continued. For compounds A and F, a medium was also prepared with a concentration of 1 or 5 μmol/L. After 24 hours, the medium was discarded and the cell layer was fixed for 2 hours at room temperature using 0.2 mL of 5% paraformaldehyde (0.1 mol/L phosphate buffer solution (pH 7.4, Wako Pure Chemical Industries) containing 0.4% cetylpyridinium chloride (Wako Pure Chemical Industries). After discarding the fixing solution, it was washed once with the same solution and the washed solution was discarded. After adding 0.1 mL of scintillator (Wallac Corp.) to the cell layer and stirring, the radioactivity was measured with a scintillation counter (Wallac Corp.).

CCOC(CN1C(=O)[C@](CC(=O)Nc2ccc(C)cc2)(NC(=O)Nc2ccc(C)cc2)c2ccccc21)OCC [Compound A, (+)-1-(2,2-diethoxyethyl)-3-((4-methylphenyl)aminocarbonylmethyl)-3-(N′-(4-methylphenyl)ureido)indolin-2-one]
femoral knee joint width (rat knee joints; 10-week-old male SD rats, vs vehicle control): significantly larger | histological observation of femoral knee joint (Safranin O) (rat knee joints; rats): Safranin O-positive accelerated formation of cartilage tissue | differentiation of CL-1 to chondrocytes (from 35S-labeled sulfuric acid uptake) [1]: clearly promote
